# Experimental data from article PMC11204507, “Mechanistic Insights into the Neurotoxicity of 2,5-Dimethoxyphenethylamines (2C) and Corresponding N-(2-methoxybenzyl)phenethylamine (NBOMe) Drugs” (Journal of Xenobiotics, 2024).
# Where two headings read alike, the source gives them in different places.
# Legend:
# TK6 cells = tested on: TK6 cells; design: method as in PMID 33348640; conditions: 1 h, cited from earlier work
# [1] = tested on: differentiated SH-SY5Y cells; design: method as in PMID 37631071, PMID 25900438; conditions: same in vitro model; cited from earlier work
# [2] = tested on: differentiated SH-SY5Y cells; design: method as in PMID 37631071, PMID 25900438; conditions: same in vitro model; cited from earlier work; remark: listed apart in the source
# [3] = tested on: differentiated SH-SY5Y cells; conditions: same experimental conditions; cited from earlier work
# MAO-A and MAO-B = conditions: rat model; cited from earlier work
# serotonergic B65 cells = tested on: serotonergic B65 cells; design: method as in doi:10.1007/s11419-020-00527-w; conditions: cited from earlier work
# [4] = tested on: differentiated SH-SY5Y cells; test: Intracellular calcium levels, Fluo-4 AM probe; assay type: cell-based, human; conditions: positive control, 25 mM
# Protocol: Calcium is a vital second messenger for almost every cellular process, including cellular signaling, muscle function, neurotransmitter release, membrane function, and apoptosis. Therefore, its levels inside cells are strictly controlled to maintain cellular homeostasis. The intracellular calcium levels were measured using the cell-permeable Fluo-4 AM probe. Inside the cells, Fluo-4 AM is cleaved to its active and fluorescent form—Fluo-4—which has a high affinity for calcium ions (Ca^2⁺). Thus, its fluorescence emission is directly proportional to the concentration of calcium ions in the intracellular environment.
# Therefore, the SH-SY5Y cells were seeded onto 96-well plates (25,000 cells/cm^2) following the previously described seeding and differentiation protocol. […] The average value for negative control (EGTA-treated cells) was subtracted from every other condition and then the minimum average value was subtracted from the maximum average value for every other condition. The results are presented as a percentage relative to the control cells (0 µM). A minimum of 5 independent experiments were conducted in triplicate.
# [5] = tested on: dopaminergic CATH.a cells and 5-HT-containing B65 cells; design: method as in doi:10.1007/s11419-020-00527-w; conditions: 24 h exposure; read-out: EC50, LDH assay; cited from earlier work
# [6] = tested on: differentiated SH-SY5Y cells; test: Intracellular ROS/RNS levels, DCFH-DA probe; assay type: cell-based, human; conditions: positive control, 24 h
# Protocol: Reactive species play important roles in cell signaling and immune response. However, when their levels are excessive, they can cause oxidative stress and damage the cells. The intracellular reactive oxygen species (ROS) and reactive nitrogen species (RNS) levels were measured using the cell-permeable DCFH-DA probe. Inside the cells, DCFH-DA is cleaved by cellular esterases originating DCFH, which is oxidized by ROS/RNS, resulting in the fluorescent 2′,7′-dichlorofluorescein (DCF).
# Therefore, the SH-SY5Y cells were seeded onto 96-well plates (25,000 cells/cm^2) following the previously described seeding and differentiation protocol. […] Tert-butyl hyoperoxide (t-BHP, 100 µM, 24 h) was used as a positive control.
# At the end of the incubation period, the DCF fluorescence was measured at an excitation wavelength of 485 nm and an emission wavelength of […] in a multi-well plate reader (PowerWaveX, BioTek Instruments, Winooski, VT, USA). The detection of ROS/RNS was assessed by the percent of probe oxidation relative to the control cells (0 µM), and a minimum of 4 independent experiments were conducted in triplicate.
structure (smiles),measurement,setting,value
COc1cc(CCN)c(OC)cc1Br [2C-B],increase in ROS levels,TK6 cells; 12.5 µM,two-fold
same,tGSH content,[1],significant decrease in the tGSH content
same,ROS production,[2],no ROS production
same,drug-induced cytotoxicity upon MAO inhibition,[3],significant increase in the drug-induced cytotoxicity was observed upon MAO inhibition
same,deamination by MAO-A and MAO-B,MAO-A and MAO-B,both isoenzymes can catalyze the deamination
COc1ccc(OC)c(CCN)c1 [2C-H],increase in ROS levels,TK6 cells; 35 µM,two-fold
COc1cc(CCN)c(OC)cc1I [2C-I],mitochondrial production of ROS,serotonergic B65 cells,increase in the mitochondrial production of ROS
same,increase in ROS levels,TK6 cells; 35 µM,two-fold
same,deamination by MAO-A and MAO-B,MAO-A and MAO-B,both isoenzymes can catalyze the deamination
COc1cc(CCNCc2ccccc2OC)c(OC)cc1Br [25B-NBOMe],increase in ROS levels,TK6 cells; 12.5 µM,two-fold
same,tGSH content,[1],significant decrease in the tGSH content
same,ROS production,[2],no ROS production
"[Ca+2].[Cl-].[Cl-] [CaCl2, reference compound]","Ca2+ intracellular levels, % of control cells",[4],141.0%
"CNC(C)Cc1ccc2c(c1)OCO2 (centres unmarked) [MDMA, 3,4-methylenedioxymethamphetamine]",EC50,[5],1500 to 3000 µM
CN[C@@H](C)Cc1ccccc1 [methamphetamine],EC50,[5],1500 to 3000 µM
"CC(C)(C)OO [t-BHP, tert-butyl hydroperoxide]",activity at 100 µM,"[6]; Homo sapiens, SH-SY5Y, control 100.0%",188%
same,increase of ROS levels,[6]; 100 µM,approximately 90%
